# According to ChEMBL document CHEMBL3879911, “Heteroaryl compounds useful as inhibitors of E1 activating enzymes” (2008):
# Biological target: T1, NEDD8 activating enzyme (Homo sapiens, UniProt Q8TBC4)
# T1 sequence (Q8TBC4 whole entry): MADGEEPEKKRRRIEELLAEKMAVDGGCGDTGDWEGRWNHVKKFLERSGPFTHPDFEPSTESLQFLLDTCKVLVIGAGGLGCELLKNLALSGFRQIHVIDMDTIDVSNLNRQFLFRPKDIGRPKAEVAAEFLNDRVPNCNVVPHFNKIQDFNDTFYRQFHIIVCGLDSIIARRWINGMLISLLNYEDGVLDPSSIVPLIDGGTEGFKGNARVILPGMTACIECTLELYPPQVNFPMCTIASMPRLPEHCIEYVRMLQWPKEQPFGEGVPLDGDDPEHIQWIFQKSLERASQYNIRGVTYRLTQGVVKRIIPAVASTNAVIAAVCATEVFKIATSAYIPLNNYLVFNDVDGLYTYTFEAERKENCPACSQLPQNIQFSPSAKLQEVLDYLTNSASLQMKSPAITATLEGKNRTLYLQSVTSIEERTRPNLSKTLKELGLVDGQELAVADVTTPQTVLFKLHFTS
# T1 sequence (Q13564 whole entry): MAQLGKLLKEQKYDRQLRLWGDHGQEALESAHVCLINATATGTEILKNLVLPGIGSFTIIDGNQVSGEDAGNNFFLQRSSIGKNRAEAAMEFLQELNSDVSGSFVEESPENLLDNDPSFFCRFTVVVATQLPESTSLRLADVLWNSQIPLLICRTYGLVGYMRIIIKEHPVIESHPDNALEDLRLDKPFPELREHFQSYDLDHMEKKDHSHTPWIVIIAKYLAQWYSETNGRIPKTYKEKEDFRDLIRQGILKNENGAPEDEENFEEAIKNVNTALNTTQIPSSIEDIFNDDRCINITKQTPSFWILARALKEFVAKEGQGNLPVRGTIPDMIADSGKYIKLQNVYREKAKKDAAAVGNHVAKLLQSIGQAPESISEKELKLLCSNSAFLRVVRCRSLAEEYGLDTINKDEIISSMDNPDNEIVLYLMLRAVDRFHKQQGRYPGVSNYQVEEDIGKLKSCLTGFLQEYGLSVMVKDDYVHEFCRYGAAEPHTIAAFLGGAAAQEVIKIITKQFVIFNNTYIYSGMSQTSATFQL
# Assay: Inhibition of recombinant human NAEalpha/N-terminal His-tagged NAEbeta expressed in baculovirus infected insect Sf9 cells using N-terminal FLAG tagged Nedd8 as substrate incubated for 105 mins in presence of N-terminal GST-tagged Ubc12 by FRET assay
row,IC50 [nM],SMILES
1,≤ 500,NS(=O)(=O)OC[C@@H]1C[C@@H](N2CCc3c(N[C@H]4CCc5ccccc54)ncnc32)C[C@@H]1O
2,≤ 500,NS(=O)(=O)OC[C@@H]1C[C@@H](Nc2ncnc(N[C@H]3CCc4ccccc43)n2)C[C@@H]1O
3,> 10000,NS(=O)(=O)OC[C@H]1C[C@@H](Nc2ccnc(C(=O)N3CCc4ccccc43)c2)[C@H](O)[C@@H]1O
4,> 10000,NS(=O)(=O)OC[C@H]1C[C@@H](Nc2ccnc(C(=O)N[C@H]3CCc4ccccc43)c2)[C@H](O)[C@@H]1O
5,≤ 500,CO[C@@H]1CCc2ccccc2[C@@H]1Nc1cc(O[C@@H]2C[C@@H](COS(N)(=O)=O)[C@@H](O)C2)ncn1
6,≤ 500,CO[C@H]1CCc2ccccc2[C@H]1Nc1cc(O[C@@H]2C[C@@H](COS(N)(=O)=O)[C@@H](O)C2)ncn1
7,≤ 500,"NS(=O)(=O)OCC1C[C@@H](Nc2ncnc3[nH]c(C4CCCc5ccccc54)nc23)C[C@@H]1O (single isomer, unassigned)"

# The next lines start with the compound.
row,SMILES,IC50 [nM]
1,NS(=O)(=O)OC[C@H]1CC[C@H](Oc2ncnc3[nH]c(-c4cccc5ccccc45)nc23)C1,500 to 10000
2,CO[C@@H]1CC(C)(C)c2ccccc2[C@@H]1Nc1cc(O[C@@H]2C[C@@H](COS(N)(=O)=O)[C@@H](O)C2)ncn1,≤ 500
3,NS(=O)(=O)OC[C@@H]1C[C@@H](Oc2cc(OCc3ccc4ccccc4c3)ncn2)C[C@@H]1O,500 to 10000
4,CO[C@H]1CC(C)(C)c2ccccc2[C@H]1Nc1cc(O[C@@H]2C[C@@H](COS(N)(=O)=O)[C@@H](O)C2)ncn1,≤ 500
5,NS(=O)(=O)OC[C@@H]1C[C@@H](Nc2ncnc(N[C@@H]3c4ccccc4CC3(F)F)n2)C[C@@H]1O,≤ 500
6,COc1ccc2c(c1)[C@H](Nc1cc(O[C@@H]3C[C@@H](COS(N)(=O)=O)[C@@H](O)C3)ncn1)[C@H](OC)CC2,500 to 10000
7,COc1ccc2c(c1)[C@@H](Nc1cc(O[C@@H]3C[C@@H](COS(N)(=O)=O)[C@@H](O)C3)ncn1)[C@@H](OC)CC2,500 to 10000
